Experimental findings from patent US6730787B1, “2,4Dioxo-5-arylidenimino-1,3-pyrimidines” (priority 2001, dated 2004) are described below.

Series [1] concerns no-breed white mice. It counts as in vivo. Particulars: observed 72 hours, 300 was the maximally utilized concentration. On the procedure: Tested substance was introduced orally (in dose of 300 mg/kg) through a gastric tube or intraperitoneally (in dose of 100 mg/kg) to no-breed white mice with mass 18-20 g (each tested group consisted of 3 males and 3 females). Then the mouse state was observed during 72 hours. Absence of symptoms characteristic of toxic effects, or absence of animal death during the given time allows to make a conclusion that the toxicity of the tested substance is low. If acute toxicity effects are observed, the dose is reduced to find maximal tolerable dose.

Series [2] deals with primary culture of human lymphocytes. Kind of series: Interferon-inducing activity in primary culture of human lymphocytes (IFN-α immunoenzyme test). It counts as cell-based. The method, then:
To obtain lymphocyte culture, fresh blood (within 12 hours after sampling) from healthy donors (not of group II) was used. To separate lymphocytes, heparinized blood obtained from healthy donor was centrifuged in a density gradient ficoll-verografin of […] in order to extract a fraction of immunocompetent cells. This fraction was selected and diluted with the nutrient medium RPMI-1640, containing 5% of fetal calf serum, 0.3 mg/ml of L-glutamin, 100 un/ml of penicillin, and 50 μg/ml of streptomycin. The concentration of lymphocytes was considered after dying them with methylene blue and calculation of cell number in a chamber of a hemocytometer. Initial solutions of the claimed compounds were diluted with the nutrient medium RPMI-1640 so that the final concentrations of the compounds which were obtained after introduction of lymphocyte suspension, constituted the raw: 100 μg/ml, 10 μg/ml, 1 μg/ml. The final concentration of lymphocytes in the induction mixture was 3×10^6 cell/ml.
Control and test samples were incubated for 24 hours at the temperature of 37° C. After incubation, the samples were centrifuged at 2,000 G to deposit cell elements, and IFN-containing supernatant was separate out of the samples; then the supernatant was analyzed for the quantitative content of IFN. Cell deposition was resuspended in the preceding volume of nutrient medium, colored with vital dye trypan blue, and cell number was counted in a chamber of a hemocytometer (as described above) to determine cytotoxic effect of the compounds.
Quantitative determination of the content of IFN in control and test samples was conducted using the immunoenzyme test system Pro Con IF2 Plus, that is intended for determination of IFN-α, which is produced by TOO <<Protein contour>>. The solid-phase immunoenzyme method, utilizing horse radish peroxidase as an indicator enzyme, was used to determine the quantity of interferon in the samples. Activity of the bonded peroxidase was measured using an automatic photometer for microplates with a microprocessor at the wavelength of 450 nm.
Based on the obtained results, a calibrating curve was formed, which allows to obtain data expressed in international units (IU) of activity, using the microprocessor of the automatic photometer. The results of the analysis are expressed in IU of activity of IFN per ml in the given induction system, which contains 3×10^6 lymphocyte/ml. Each test and control point was investigated in four parallels.
The obtained data were undergone a statistical analysis using t-criterion, and calculation of the confident interval of probability at p=0.05 was carried out. Coincidence between the results obtained in the parallel tests was analyzed.

The subject of series [3] is Herpes Simplex virus of the type I (HSV-I/Leningrad/248/88). Put plainly: Effect on Herpes Simplex virus: cytopathogenic effect in Vero cells. Particulars: for Quantity of the unchanged cells: number of cells in 100 visual fields. It counts as cell-based.
Series [4] deals with Mycobaciterium tuberculosis H37RV. Put plainly: Antimicrobial effect, serial dilution method (MIC). It counts as cell-based, Mycobacterium tuberculosis. The conditions noted are these: 72-hour cultivation at 37° C.
Series [5] has as its system mice. Kind of series: Analgesic activity (tail withdrawal from radiant heat). It counts as in vivo. The method, then:
The time needed to draw back a tail placed under a directed source of radiant heat was estimated in a group of 3 mice. Prolongation of the response time by more than 50% after intraperitoneal dosing the substance (30 mg/kg) indicated analgesic activity. Analginum (2 mg/kg) was utilized as a reference agent.

The test system of series [6] is C.trachomatis D323. Put plainly: Effect on Chlamydia trachomatis in cell culture. It counts as cell-based. Particulars: for percentage of cell protection from infection / Number of unchanged cells: 100 mg/l, 48 hours; for Number of unchanged cells: counted in 100 visual fields; for activity against chlamydia (in words): compared with Ciprofloxacin / compounds of Table 5. The method, then:
The […] activity of the claimed compounds was studied in respect to C.trachomatis […], which is a standard strain contained in the collection of the department of microbiology of St. Petersburg State Pavlov Medical University. […] Cells were grown in flasks made of neutral glass in the medium RPMI-1640 containing 10% of fetal calf serum. The test was performed in flat-bottom flasks made of glass (non-toxic), that were supplied with cover glasses. The cells were introduced into the medium in the final concentration of 1×10^6 cell/ml. […] Simultaneously, tested compounds in a final concentration of 100 mg/l were added to the cells. The sample was centrifuged at 2400 G for 60 minutes at a room temperature and incubated at 37° C. for 2 hours. […] The samples were doubled using the medium without cycloheximide so as to exclude its effect on the investigated compounds. The samples were incubated for 48 hours in CO2-incubator. […] The effect of the compound was determined by analysis of the monolayer state and number of cells with CPI when compared with the control (cell culture infected with C.trachomatis […]); in doing so, the number of unchanged cells, that were counted in 100 visual fields obtained using the eyepiece-micrometer, was taken into consideration.

In series [7] the test system is mice. Kind of series: Psychodepressant activity (behavioral depression score). It counts as in vivo. Particulars: one hour after per oral 300 mg/kg; total 60 points, less than 40 = significant behavioral depression; 3 mice. On the procedure:
Each parameter scores 2 points for an each mouse that had unchanged behavior. The total point sum was 60 (2×10×3 mice). Reducing score to less than 40 one hour after dosing with a substance per oral (300 mg/kg) denoted significant behavioral depression. Haloperidol was utilized as a reference agent.

Series [8] deals with rats. Put plainly: Hepatoprotective activity (CCl4 liver damage, AlAT). It counts as in vivo. The method, then:
CCl4 dissolved in 50% olive oil (1 ml/kg) was subcutaneously administrated to rats. Test substances were administrated perorally in a dose of 20 mg/kg 30 minutes before and 7 hours after the CCL4 administration. The activity of alanine-aminotranspherase (AlAT), which is a marker enzyme of liver parenchyma damage, was assessed twenty-four hours later. Reducing of enzyme amount by more than 30% relative to the control group was considered as evidence of hepatoprotective properties of the substance. Vitamin E in a dose of 100 mg/kg was used as a reference agent.

[9] abbreviates: compound 100 μg/ml, 36 hours of incubation.
Where [10] appears, read: Mycobacterium tuberculosis, H37RV, read-out: MIC.

For orientation: MIC means the least concentration at which growth counts as inhibited.

Values after ≈ are worked out from the molar mass of the structure shown. Read-outs that look alike come from different tables or passages of the source.

Take `O=c1[nH]cc(N=Cc2ccccc2Cl)c(=O)[nH]1` [IV, 2,4-dioxo-5-(2-chlorobenzylidene) imino-1,3-pyrimidine]: the “Maximal tolerable dose: Concentration of tested compounds (mg/l) at oral introducing” value (from here on “Maximal tolerable dose: Concentration”) in series [1] was 300 mg/L. The “Content of IFN in induction mixture after 24-hour incubation” value in series [2] (substance 1 mg/l) is listed as 15,2 ± 0,3 IU/3 × 10^4 lymph./ml; in series [2] (substance 10 mg/l), 62,5 ± 1,3 IU/3 × 10^4 lymph./ml; in series [2] (substance 100 mg/l), 123,6 ± 0,5 IU/3 × 10^4 lymph./ml.
Take `O=c1[nH]cc(N=Cc2cc([N+](=O)[O-])ccc2O)c(=O)[nH]1` [XIX, 2,4-dioxo-5-(2-hydroxy-5-nitrobenzylidene) imino-1,3-pyrimidine]: the “Maximal tolerable dose: Concentration” value in series [1] was determined as 300 mg/L. Further, in series [3] (setting [9]), the “% of protection” value was 80% and the “Quantity of the unchanged cells” value is listed as 8000.
The compound Rifampycin gave an MIC in series [4] of 0.05 µg/mL.
Take `O=c1[nH]cc(N=Cc2cc(I)cc(I)c2O)c(=O)[nH]1` [XXIV, 2,4-dioxo-5-(2-hydroxy-3,5-diiodobenzylidene) imino-1,3-pyrimidine]: the “Maximal tolerable dose: Concentration” value in series [1] worked out at 300 mg/L. Further, in series [4], the MIC was determined as 100 µg/mL (≈ 207 µM).
Take `Cc1c(N(C)CS(=O)(=O)[O-])c(=O)n(-c2ccccc2)n1C.[Na+]` [Analginum, reference compound]: the “Prolongation of the latent period of response (%)” value in series [5] (Analginum 2 mg/kg, reference agent) was 86%.
Turning to `O=c1[nH]cc(N=Cc2ccc(Cl)cc2Cl)c(=O)[nH]1` [XI, 2,4-dioxo-5-(2,4-dichlorobenzylidene) imino-1,3-pyrimidine], the “Maximal tolerable dose: Concentration” value in series [1] stood at 300 mg/L. Also, in series [6], the “percentage of cell protection from infection” value is given as 55%, the “Number of unchanged cells” value was 7.700 and the “activity against chlamydia (in words)” value is recorded as “marked activity against chlamydia”.
For `CN(C)c1ccc(C=Nc2c[nH]c(=O)[nH]c2=O)cc1` [XXV, 2,4-dioxo-5-(4-dimethylamino-benzylidene) imino-1,3-pyrimidine], in that order: 300 mg/L, 55%, 7.700 and “marked activity against chlamydia”.
Turning to `Nc1nc2c(ncn2COCCO)c(=O)[nH]1` [Acyclovir, reference compound], in series [3] (Acyclovir 30 μg/ml), the “% of protection” value is reported as 80% and the “Quantity of the unchanged cells” value was determined as 8000.
`CC1COc2c(N3CCN(C)CC3)c(F)cc3c(=O)c(C(=O)O)cn1c23` (stereo not drawn) [Ofloxacin]: the MIC in series [4] (setting [10]) stood at 0.5 µg/mL (≈ 1.38 µM).
For the compound `O=c1[nH]cc(N=Cc2cc(Cl)cc(Cl)c2O)c(=O)[nH]1` [XII, 2,4-dioxo-5-(2-hydroxy-3,5-dichlorobenzylidene) imino-1,3-pyrimidine], the “Maximal tolerable dose: Concentration” value in series [1] was 300 mg/L. In series [7], this compound displayed a Point number of 35. Moreover, the “% of reducing AIAT” value in series [8] (perorally 20 mg/kg 30 minutes before and 7 hours after CCl4, assessed 24 hours later, relative to control group) was −48%. The compound also registered an MIC in series [4] of 100 µg/mL (≈ 333 µM). For the same compound, the “Prolongation of the latent period of response (%)” value in series [5] (intraperitoneal 30 mg/kg, more than 50% = analgesic activity) amounted to 96%. Further, in series [3] (setting [9]), the “% of protection” value turned out to be 90% and the “Quantity of the unchanged cells” value is reported as 9000.
As for `NNC(=O)c1ccncc1` [Isoniazid], the minimal inhibitory concentration (MIC) in series [4] (setting [10]) came out at 0.1 µg/mL (≈ 0.729 µM).
Turning to `O=c1[nH]cc(N=Cc2ccccc2[N+](=O)[O-])c(=O)[nH]1` [XVIII, 2,4-dioxo-5-(2-nitrobenzylidene) imino-1,3-pyrimidine], in series [1], the “Maximal tolerable dose: Concentration” value was determined as 300 mg/L. The compound further displayed a minimal inhibitory concentration (MIC) in series [4] of 100 µg/mL (≈ 384 µM).
Take Vitamin E [reference compound]: the “% of reducing AIAT” value in series [8] (Vitamin E 100 mg/kg, reference agent) is on record as −30%.
`O=C(CCCN1CCC(O)(c2ccc(Cl)cc2)CC1)c1ccc(F)cc1` [Haloperidol, reference compound]: in series [7], the Point number came out at 27.
Consider `CC[C@@H](CO)NCCN[C@@H](CC)CO` [Ethambutol], for which the MIC in series [4] (setting [10]) was found to be 5 µg/mL (≈ 24.5 µM).
`COc1cc(C=Nc2c[nH]c(=O)[nH]c2=O)ccc1O` [XV, 2,4-dioxo-5-(4-hydroxy-3-methoxybenzylidene) imino-1,3-pyrimidine]: the “Maximal tolerable dose: Concentration” value in series [1] is 300 mg/L. In addition, the “Content of IFN in induction mixture after 24-hour incubation” value in series [2] (substance 1 mg/l) is reported as 4,5 ± 1,6 IU/3 × 10^4 lymph./ml; in series [2] (substance 10 mg/l), 54,2 ± 1,8 IU/3 × 10^4 lymph./ml; in series [2] (substance 100 mg/l), 105 ± 2 IU/3 × 10^4 lymph./ml.
Turning to `O=c1[nH]cc(N=Cc2cc(Br)cc(Br)c2O)c(=O)[nH]1` [XIII, 2,4-dioxo-5-(2-hydroxy-3,5-dibromobenzylidene) imino-1,3-pyrimidine], the “Maximal tolerable dose: Concentration” value in series [1] was found to be 300 mg/L. For the same compound, in series [3] (setting [9]), the “% of protection” value amounted to 80% and the “Quantity of the unchanged cells” value worked out at 8000.
Turning to `O=c1[nH]cc(N=Cc2cc(Br)ccc2O)c(=O)[nH]1` [VIII, 2,4-dioxo-5-(2-hydroxy-5-bromobenzylidene) imino-1,3-pyrimidine], the “Maximal tolerable dose: Concentration” value in series [1] came out at 300 mg/L. The MIC in series [4] was 100 µg/mL (≈ 322 µM).
On to `[H]/N=C(/N)N[C@H]1[C@H](O)[C@@H](O)[C@H](O[C@@H]2O[C@@H](C)[C@](O)(C=O)[C@H]2O[C@@H]2O[C@@H](CO)[C@H](O)[C@@H](O)[C@@H]2NC)[C@@H](N/C(N)=N\[H])[C@@H]1O` [Streptomycin], for which the MIC in series [4] (setting [10]) turned out to be 0.2 µg/mL (≈ 0.344 µM).
